According to article PMC12481569, “Novltex: A New Class of Antibiotics with Potent Activity against Multidrug-Resistant Bacterial Pathogens–Design, Synthesis, and Biological Evaluation” (Journal of Medicinal Chemistry, 2025):
Positions of bridges follow the written chain, without caps; N, C: chain ends. Non-standard residues stand in square brackets, D forms with d. Residues, ends and D or L forms follow the SMILES beside them. dCha = N[C@H](CC1CCCCC1)C(=O)O

Key:
HepG2 = test: Cytotoxicity, MTS-based assay; type: cell-based, human; settings: up to 50 μg/mL, 24 or 48 h, three independent experiments in triplicate
Method: (§1) 4 Cytotoxicity evaluation of analogue 12. Human primary dermal fibroblasts (A), liver cell line HepG2 (B), and kidney cell line HEK293T (C) cells (5 × 10^3 cells/well in 96-well plates) were treated with increasing concentrations of analogue 12 or 1 μM staurosporine (STS, used as a positive toxicity control) for 24 or 48 h, as indicated. Viability of cells was determined using an MTS-based assay. Results (% cell viability) are the mean ± SD of three independent experiments performed in triplicate. (D) Freshly collected human red blood cells (RBCs) were exposed to increasing concentrations of 12 or Triton X-100 (TX), as indicated, for 1 h. Hemolytic activity (% hemolysis) was determined by spectrophotometrically measuring the release of hemoglobin compared to that with TX (used as a positive control). Results are the mean ± SD of 4 independent experiments performed in duplicate using blood samples from four different anonymous healthy donors. […]
(§2) Bacterial cultures were grown overnight on Mueller-Hinton Agar (MHA) plates and adjusted to a final inoculum of 10^5 – 10^6 CFU/mL. […] MIC values were determined in the media contain ing polysorbate 80 (0.002%, v/v) to prevent non -specific adsorption of the peptides to plastic surfaces. […] All the experiments were performed in two independent duplicates and the MIC was determined as the lowest concentration in which no visible growth was observed. […]

HEK293T = test: Cytotoxicity, MTS-based assay; type: cell-based, human; settings: up to 50 μg/mL, 24 or 48 h, three independent experiments in triplicate
Method: as §1, §2

Question: How did the “cytotoxicity (cell viability), HepG2” value (HepG2) turn out when `CC(C)C[C@@H]1NC(=O)[C@H](C)NC(=O)[C@H](NC(=O)[C@H](CO)NC(=O)[C@@H](CCCCN)NC(=O)[C@@H](CC2CCCCC2)NC(=O)[C@@H](N)Cc2ccccc2)[C@H](C)OC(=O)[C@H](CC(C)C)NC1=O` [analogue 12, Leu2Cha–Novltex] (H-F[dCha][dK]S[dT]ALL; ester 5-C) was run?
Answer: The value was “no major cytotoxicity”.

Question: What about the “cytotoxicity (cell viability), HEK293T” value (HEK293T) of the same molecule?
Answer: The value was “no major cytotoxicity”.
